For orientation: Cmax means the highest concentration seen after dosing. The term EC50 denotes the concentration needed to bring the measured effect to its halfway point. Higher therefore signals a less potent agent.

Where only a bound is given, the exact number is not on record here.

Tested on in one data set: not listed separately
Briefly: Cmax in CD-1 mouse brain at 10 mg/kg, po administered via gavage as single dose by LC/MS/MS analysis. Type of data set: ADME, organism-based. Further details: dose 10 mg/kg, route oral.
Details: not given
As for `COC(=O)c1[nH]c2c(c1C)C(=O)CC(c1cccs1)C2` (centres undefined), the Cmax was below 100 nM.

For the molecule `N#Cc1c(NC(=O)CCc2cccs2)sc2c1CCCC2`, the Cmax was below 100 nM.

`COc1cc(C(=O)c2cc(Cl)ccc2N)cc(OC)c1OC` returned a Cmax below 100 nM.

For the molecule `O=C(Nc1ccc(I)cn1)c1cccc(F)c1`, the Cmax was below 100 nM.

Molecule `O=C(Nc1ccncc1)C1CCCN1S(=O)(=O)c1ccc2ccccc2c1` (centres undefined) displayed a Cmax below 100 nM.

On to `CCOc1ccccc1C1C(C#N)=C(N)Oc2cc(N(C)C)ccc21` (centres undefined), for which the Cmax is below 100 nM.

For `CCOc1ccc(Nc2nc(-c3c(C)nc4sccn34)cs2)cc1`, the highest concentration (Cmax) was below 100 nM.

In the case of `CN(C)c1ccc2c(c1)OC(N)=C(C#N)C2c1cccc(F)c1` (centres undefined), the Cmax was below 100 nM.

Take `COc1ccc(Cl)cc1C(=O)N1CC(=O)Nc2ccccc21`: the Cmax is below 100 nM.

`CCOC(=O)c1[nH]c(C)c(C(=O)c2ccc(C)cc2)c1C` yielded a peak concentration (Cmax) below 100 nM.

Molecule `COc1ccc(Cl)cc1NS(=O)(=O)c1ccc(N2CCCC2=O)cc1` had a Cmax below 100 nM.

In turn, `COc1cccc(N2CCN(C(=O)c3cc(C)ccc3OC)CC2)c1` displayed a Cmax below 100 nM.

In turn, `CCOc1ccc2c(c1)C(C)=CC(C)(C)N2S(=O)(=O)c1ccc(C)cc1` had a Cmax below 100 nM.

Turning to `CC1=CC(C)(C)N(S(=O)(=O)c2ccc(C)cc2)c2cc(C)ccc21`, the Cmax was below 100 nM.

`CCc1nnc(NC(=O)c2ccoc2COc2ccccc2)s1` gave a Cmax below 100 nM.

In the case of `COc1ccccc1C(=O)N1CCN(c2ccccc2OC)CC1`, the Cmax was below 100 nM.

`Cc1nc2sccn2c1-c1csc(Nc2ccc(N(C)C)nc2)n1` registered a maximum concentration (Cmax) below 100 nM.

The test system of a further data set is Liver microsome. In words: Half life in human liver microsomes at 1 uM by LC/MS/MS analysis. Type of data set: ADME.
Details: not given
A general note: Microsomes from liver hold many membrane-bound enzymes, among them those of drug oxidation.
Consider `CCOc1ccccc1C1C(C#N)=C(N)Oc2cc(N(C)C)ccc21` (centres undefined), for which the t1/2 turned out to be 9.7 min.

Take `CCOc1ccc(Nc2nc(-c3c(C)nc4sccn34)cs2)cc1`: the t1/2 came to 9.6 min.

In turn, `COc1cccc(N2CCN(C(=O)c3cc(C)ccc3OC)CC2)c1` registered a t1/2 of 4.5 min.

Tested on in another data set: not listed separately
In words: Cmax in CD-1 mouse plasma at 10 mg/kg, po administered via gavage as single dose by LC/MS/MS analysis. Type of data set: ADME, organism-based. Further details: dose 10 mg/kg, route oral.
Details: not given
In the case of `COC(=O)c1[nH]c2c(c1C)C(=O)CC(c1cccs1)C2` (centres undefined), the Cmax is below 100 nM.

`N#Cc1c(NC(=O)CCc2cccs2)sc2c1CCCC2` returned a Cmax below 100 nM.

Take `COc1cc(C(=O)c2cc(Cl)ccc2N)cc(OC)c1OC`: the Cmax was below 100 nM.

For the molecule `O=C(Nc1ccc(I)cn1)c1cccc(F)c1`, the Cmax is below 100 nM.

`O=C(Nc1ccncc1)C1CCCN1S(=O)(=O)c1ccc2ccccc2c1` (centres undefined) returned a Cmax below 100 nM.

`CCOc1ccccc1C1C(C#N)=C(N)Oc2cc(N(C)C)ccc21` (centres undefined) gave a Cmax below 100 nM.

The molecule `CCOc1ccc(Nc2nc(-c3c(C)nc4sccn34)cs2)cc1` showed a Cmax below 100 nM.

As to `CN(C)c1ccc2c(c1)OC(N)=C(C#N)C2c1cccc(F)c1` (centres undefined), the Cmax was below 100 nM.

`COc1ccc(Cl)cc1C(=O)N1CC(=O)Nc2ccccc21` registered a Cmax below 100 nM.

In turn, `CCOC(=O)c1[nH]c(C)c(C(=O)c2ccc(C)cc2)c1C` came in with a Cmax below 100 nM.

For `COc1ccc(Cl)cc1NS(=O)(=O)c1ccc(N2CCCC2=O)cc1`, the Cmax was below 100 nM.

In turn, `COc1cccc(N2CCN(C(=O)c3cc(C)ccc3OC)CC2)c1` returned a Cmax below 100 nM.

`CCOc1ccc2c(c1)C(C)=CC(C)(C)N2S(=O)(=O)c1ccc(C)cc1`: the Cmax is below 100 nM.

As for `CC1=CC(C)(C)N(S(=O)(=O)c2ccc(C)cc2)c2cc(C)ccc21`, the Cmax is below 100 nM.

For `CCc1nnc(NC(=O)c2ccoc2COc2ccccc2)s1`, the Cmax was below 100 nM.

Take `COc1ccccc1C(=O)N1CCN(c2ccccc2OC)CC1`: the Cmax is below 100 nM.

`Cc1nc2sccn2c1-c1csc(Nc2ccc(N(C)C)nc2)n1` yielded a Cmax below 100 nM.

The test system of the next data set is Liver microsome. Briefly: Metabolic stability in human liver microsomes assessed as compound remaining at 1 uM after 60 mins by LC/MS/MS analysis. Type of data set: ADME. As to conditions: 1 h.
For `CCOc1ccccc1C1C(C#N)=C(N)Oc2cc(N(C)C)ccc21` (centres undefined), the Stability worked out at 1.3%.

For `CCOc1ccc(Nc2nc(-c3c(C)nc4sccn34)cs2)cc1`, the Stability is given as 1.5%.

As to `COc1cccc(N2CCN(C(=O)c3cc(C)ccc3OC)CC2)c1`, the Stability was 1%.

Tested on in another data set: not listed separately
In words: Cmax in CD-1 mouse brain at 10 mg/kg, ip administered as single dose by LC/MS/MS analysis. Type of data set: ADME, organism-based. Further details: dose 10 mg/kg, route intraperitoneal.
Details: not given
In turn, `COC(=O)c1[nH]c2c(c1C)C(=O)CC(c1cccs1)C2` (centres undefined) showed a Cmax of at most 16.2 µM.

For `N#Cc1c(NC(=O)CCc2cccs2)sc2c1CCCC2`, the Cmax is at most 16.2 µM.

Regarding `COc1cc(C(=O)c2cc(Cl)ccc2N)cc(OC)c1OC`, the Cmax is at most 16.2 µM.

The molecule `O=C(Nc1ccc(I)cn1)c1cccc(F)c1` had a Cmax of at most 16.2 µM.

On to `O=C(Nc1ccncc1)C1CCCN1S(=O)(=O)c1ccc2ccccc2c1` (centres undefined), for which the peak concentration (Cmax) was at most 16.2 µM.

Turning to `CCOc1ccccc1C1C(C#N)=C(N)Oc2cc(N(C)C)ccc21` (centres undefined), the Cmax was at most 16.2 µM.

The molecule `CCOc1ccc(Nc2nc(-c3c(C)nc4sccn34)cs2)cc1` returned a Cmax of at most 16.2 µM.

`CN(C)c1ccc2c(c1)OC(N)=C(C#N)C2c1cccc(F)c1` (centres undefined) returned a Cmax of at most 16.2 µM.

Molecule `COc1ccc(Cl)cc1C(=O)N1CC(=O)Nc2ccccc21` registered a Cmax of at most 16.2 µM.

Molecule `CCOC(=O)c1[nH]c(C)c(C(=O)c2ccc(C)cc2)c1C` came in with a maximum concentration (Cmax) of at most 16.2 µM.

`COc1ccc(Cl)cc1NS(=O)(=O)c1ccc(N2CCCC2=O)cc1` registered a Cmax of at most 16.2 µM.

With `COc1cccc(N2CCN(C(=O)c3cc(C)ccc3OC)CC2)c1`, the Cmax was at most 16.2 µM.

`CCOc1ccc2c(c1)C(C)=CC(C)(C)N2S(=O)(=O)c1ccc(C)cc1` gave a Cmax of at most 16.2 µM.

`CC1=CC(C)(C)N(S(=O)(=O)c2ccc(C)cc2)c2cc(C)ccc21` came in with a Cmax of at most 16.2 µM.

On to `CCc1nnc(NC(=O)c2ccoc2COc2ccccc2)s1`, for which the peak concentration (Cmax) is at most 16.2 µM.

Turning to `COc1ccccc1C(=O)N1CCN(c2ccccc2OC)CC1`, the Cmax was at most 16.2 µM.

In turn, `Cc1nc2sccn2c1-c1csc(Nc2ccc(N(C)C)nc2)n1` registered a Cmax of at most 16.2 µM.

Tested on in a further data set: not listed separately
In words: Half life in mouse liver microsomes at 1 uM by LC/MS/MS analysis. It is filed as ADME, Microsome.
Details: not given
In turn, `CCOc1ccccc1C1C(C#N)=C(N)Oc2cc(N(C)C)ccc21` (centres undefined) had a t1/2 of 1.9 min.

In turn, `CCOc1ccc(Nc2nc(-c3c(C)nc4sccn34)cs2)cc1` displayed a t1/2 of 4.5 min.

For the molecule `COc1cccc(N2CCN(C(=O)c3cc(C)ccc3OC)CC2)c1`, the t1/2 was 1.6 min.

Tested on in a further data set: not listed separately
In words: Metabolic stability in mouse liver microsomes assessed as compound remaining at 1 uM after 60 mins by LC/MS/MS analysis. As to conditions: 1 h. Type of data set: ADME, Microsome.
Take `CCOc1ccccc1C1C(C#N)=C(N)Oc2cc(N(C)C)ccc21` (centres undefined): the Stability was determined as 0.1%.

For `CCOc1ccc(Nc2nc(-c3c(C)nc4sccn34)cs2)cc1`, the Stability was found to be 0.5%.

`COc1cccc(N2CCN(C(=O)c3cc(C)ccc3OC)CC2)c1`: the Stability amounted to 0%.

For the next data set, the system named is T98G. Briefly: cells. As to conditions: Homo sapiens, 48 h.
`COC(=O)c1[nH]c2c(c1C)C(=O)CC(c1cccs1)C2` (centres undefined) had an EC50 of 410 nM.

As to `N#Cc1c(NC(=O)CCc2cccs2)sc2c1CCCC2`, the EC50 worked out at 150 nM.

Regarding `COc1cc(C(=O)c2cc(Cl)ccc2N)cc(OC)c1OC`, the EC50 was determined as 90 nM.

In turn, `O=C(Nc1ccc(I)cn1)c1cccc(F)c1` gave an EC50 of 450 nM.

As for `O=C(Nc1ccncc1)C1CCCN1S(=O)(=O)c1ccc2ccccc2c1` (centres undefined), the EC50 came out at 1520 nM. This EC50 is about 3.4-fold higher than that of the molecule before.

The molecule `CCOc1ccc(Nc2nc(-c3c(C)nc4sccn34)cs2)cc1` came in with an EC50 of 30 nM. This EC50 is about 51-fold lower than that of the molecule before.

Take `CN(C)c1ccc2c(c1)OC(N)=C(C#N)C2c1cccc(F)c1` (centres undefined): the EC50 is 30 nM.

On to `COc1ccc(Cl)cc1C(=O)N1CC(=O)Nc2ccccc21`, for which the EC50 is 650 nM.

On to `CCOC(=O)c1[nH]c(C)c(C(=O)c2ccc(C)cc2)c1C`, for which the EC50 came to 530 nM.

`COc1ccc(Cl)cc1NS(=O)(=O)c1ccc(N2CCCC2=O)cc1` had an EC50 of 510 nM.

Take `COc1cccc(N2CCN(C(=O)c3cc(C)ccc3OC)CC2)c1`: it took 270 nM to reach a half-maximal effect (EC50).

`CCOc1ccc2c(c1)C(C)=CC(C)(C)N2S(=O)(=O)c1ccc(C)cc1` had an EC50 of 690 nM.

`CC1=CC(C)(C)N(S(=O)(=O)c2ccc(C)cc2)c2cc(C)ccc21`: it took 3770 nM to reach a half-maximal effect (EC50).

The molecule `CCc1nnc(NC(=O)c2ccoc2COc2ccccc2)s1` came in with a 50% effective concentration (EC50) of 2240 nM.

As for `COc1ccccc1C(=O)N1CCN(c2ccccc2OC)CC1`, the EC50 came out at 3240 nM.

Regarding `Cc1nc2sccn2c1-c1csc(Nc2ccc(N(C)C)nc2)n1`, the EC50 was 220 nM.

The record behind these values is ChEMBL document CHEMBL3120106, “Novel compounds lowering the cellular isoform of the human prion protein in cultured human cells” (Bioorg Med Chem, 2014).
